# From patent US20220117938A1, “COMBINATON THERAPY WITH A DON PRODRUG AND AN IMMUNE CHECKPOINT INHIBITOR” (DRACEN PHARMACEUTICALS, INC., priority 2019, published 2022)
# Test system: Ninety four (94) cell lines and PBMC
# Assay: Cell viability assay, SRB staining, 94 cell lines and PBMC (Example 7, Experiment 2)
# Type: cell-based
# Protocol: Ninety four (94) cell lines were seeded at a density varying from 500 to 7000 cells/well depending on their growth characteristics. PBMC were seeded at the density 50,000-100,000 cells/well. Cells were incubated for 48 h prior to compound treatment. Compound 1 and DON were evaluated at a concertation range of 1 nM up to 100 μM. Compound 1 dilutions in DMSO and DON dilutions in PBS were performed in 96-well 0.5 mL plates (Greiner Bio-One, Germany). Compounds were then diluted 1:100 in RPMI medium. […] of cells were treated by mixing with 10 μL of the compound-containing media (resulting in a final DMSO concentration of 0.1%). The cells were allowed to grow at 37° C. for 120 h. Cells were fixed to the surface by addition of 10% TCA (for adherent growing cells) or 50% TCA (for semi-adherent growing cells or cells growing in suspension). After an hour of incubation at 4° C., plates were washed twice with 400 μL of deionized water and dried. Cells were then stained with 100 μL of 0.04% wt/v SRB. The plates were incubated at room temperature for at least 30 min and washed six times with 1% acetic acid to remove unbound stain. The plates were left to dry at room temperature and bound SRB was solubilized with 100 μL of 10 mM Tris base. Optical density was measured at 492, 520 and 560 nm using a Deelux-LED96 plate reader (Deelux Labortechnik GmbH, Germany).
# Cell lines were purchased directly from the ATCC, NCI, CLS, and DSMZ cell line collections. A master bank and working aliquots were prepared. Cells used for the study had undergone less than 20 passages. To rule out potential contamination or wrong assignment, all cell lines were tested by STR analysis. Absence of mycoplasma contamination was confirmed for all cell lines used in the studies.
# The cell lines were grown in the media recommended by the suppliers in the presence of 100 U/mL penicillin and 100 μg/mL streptomycin supplied with 10% FCS (PAA, Germany). RPMI 1640, DMEM, and MEM Earle's medium were from PAA (Coelbe, Germany), supplements 2 mM L-glutamine, 1 mM Na-pyruvate and 1% NEAA were from PAA (Coelbe, Germany), 2.5% horse serum, hydrocortisone, transferin, beta-estradiol, selenite and 1 U/mL insulin from Sigma-Aldrich (Munich, Germany). RPMI medium was used for culturing the following cell lines: 5637, 22RV1, 7860, A2780, A431, A549, ACHN, ASPC1, BT20, BXPC3, CAKI1, CLS439, COLO205, COLO678, DLD1, DU145, EFO21, EJ28, HCT15, HS578T, IGROV1, JAR, LOVO, MCF7, MDA MB231, MDA MB435, MDA MB436, MDA MB468, MHHES1, MT3, NCI H292, NCI H358M, NCI H460, NCIH82, OVCAR3, OVCAR4, PANC 1005 (addition of insulin), PBMC, PC3, RDES, SF268, SF295, SKBR3, SK MEL28, SKMEL5, SKOV3, SW620, U2OS, UMUC3, and U031.
# DMEM medium was used to culture A204, A375, A673, C33A, CASKI, HCT116, HEPG2, HS729, HT29, J82, MG63, MIAPACA2 (addition of horse serum), PANC1, PLCPRF5, RD, SAOS2, SKLMS1, SKNAS, SNB75, T24, and TE671.
# MEM Earle's medium was used for CACO2, CALU6, HEK293, HELA, HT1080, IMR90, JEG3, JIMT1, SKHEP1, SKNSH, and U87MG. Cell seeding conditions were optimized for each cell line. The cell seeding density varied from 500 to 7000 cells/well depending on their growth characteristics. Peripheral blood mononuclear cells (PBMC) were freshly isolated from whole blood of an anonymous donor through density gradient centrifugation using Ficoll solution (d=1.077). In short, blood was diluted 1:1 with PBS and carefully placed on the Ficoll. After centrifugation 1000×g for 15 min (braking rate 0), the ring containing mainly leucocytes was collected in PBS followed by three times washing with PBS to reduce the platelets. PBMC were seeded at the density 50,000-100,000 cells/well. Cells were grown in 5% CO2 atmosphere in a NB-203XXL incubator (N-BIOTEK Inc., Korea).
# Ninety-four cell lines were tested in parallel. Cell growth and treatment were performed in 96 well microtitre plates CELLSTAR® (Greiner Bio-One, Germany). […]
# [1] = Homo sapiens, 22Rv1, 22RV1, prostate
# [2] = Homo sapiens, 786-0, 786O, kidney
# [3] = Homo sapiens, A204, A204, muscle
# [4] = Homo sapiens, A673, A673, muscle
# [5] = Homo sapiens, A2780, A2780, ovary
# [6] = Homo sapiens, A-375, A375, skin
# [7] = Homo sapiens, A-431, A431, skin
# [8] = Homo sapiens, ASPC1, ASPC1, pancreas
# [9] = Homo sapiens, BT-20, BT20, breast
# [10] = Homo sapiens, C-33-A, C33A, endometrial
# [11] = Homo sapiens, CAKI-1, CAKI1, kidney
# [12] = Homo sapiens, COLO 205, COLO205, colon
# [13] = Homo sapiens, COLO-678, COLO678, colon
# [14] = Homo sapiens, Ca-Ski, CASKI, endometrial
# [15] = Homo sapiens, Caco-2, CACO2, colon
# [16] = Homo sapiens, Calu-6, CALU6, lung
# [17] = Homo sapiens, DLD-1, DLD1, colon
# [18] = Homo sapiens, DU-145, DU145, prostate
# [19] = Homo sapiens, EFO-21, EFO21, ovary
# [20] = Homo sapiens, EJ-28, EJ28, bladder
# [21] = Homo sapiens, Granta-519, GRANTA-519, hematological
# [22] = Homo sapiens, HCT-15, HCT15, colon
# [23] = Homo sapiens, HCT-116, HCT116, colon
# [24] = Homo sapiens, HEK293, HEK293, kidney
# [25] = Homo sapiens, HL-60, HL-60, hematological
# [26] = Homo sapiens, HT-29, HT29, colon
# [27] = Homo sapiens, HT-1080, HT1080, connective tissue
# [28] = Homo sapiens, HeLa, endometrial
# [29] = Homo sapiens, HepG2, HEPG2, liver
# [30] = Homo sapiens, IGROV-1, IGROV1, ovary
# [31] = Homo sapiens, JEG-3, JEG3, placenta
# [32] = Homo sapiens, JIMT-1, JIMT1, breast
# [33] = Homo sapiens, K562, K-562, hematological
# [34] = Homo sapiens, Kasumi 1, KASUMI-1, hematological
# [35] = Homo sapiens, L-363, L-363, hematological
# [36] = Homo sapiens, MCF7, MCF7, breast
# [37] = Homo sapiens, MDA-MB-231, MDAMB231, breast
# [38] = Homo sapiens, MDA-MB-435, MDAMB435, skin
smiles,measurement,setting,value
"[N-]=[N+]=CC(=O)CC[C@H](N)C(=O)O [DON, 6-Diazo-5-oxo-L-norleucine, reference compound]",IC50,"5637, bladder",0.881 µM
same,IC50,"CLS439, bladder",7.82 µM
same,GI50,[1],0.981 µM
same,IC50,[1],1.04 µM
same,GI50,[2],2.39 µM
same,IC50,[2],2.93 µM
same,GI50,[3],4.99 µM
same,IC50,[3],17 µM
same,GI50,"Homo sapiens, A549, A549, lung",4.05 µM
same,IC50,"Homo sapiens, A549, A549, lung",4.49 µM
same,GI50,[4],1.95 µM
same,IC50,[4],2.2 µM
same,GI50,[5],3.65 µM
same,IC50,[5],3.9 µM
same,GI50,[6],3.15 µM
same,IC50,[6],3.33 µM
same,GI50,[7],6.5 µM
same,IC50,[7],8.52 µM
same,GI50,"Homo sapiens, ACHN, kidney",5.34 µM
same,IC50,"Homo sapiens, ACHN, kidney",6.34 µM
same,GI50,[8],3.92 µM
same,IC50,[8],5.58 µM
same,GI50,[9],16.8 µM
same,IC50,[9],51.1 µM
same,GI50,"Homo sapiens, BXPC-3, BXPC3, pancreas",1.45 µM
same,GI50,[10],6.48 µM
same,IC50,[10],7.04 µM
same,GI50,[11],1.16 µM
same,IC50,[11],1.62 µM
same,GI50,[12],1.32 µM
same,IC50,[12],2.01 µM
same,GI50,[13],58.9 µM
same,IC50,[13],152 µM
same,GI50,[14],5.49 µM
same,IC50,[14],6.51 µM
same,GI50,[15],11.2 µM
same,IC50,[15],18.6 µM
same,GI50,[16],6.05 µM
same,IC50,[16],6.97 µM
same,GI50,[17],0.906 µM
same,IC50,[17],1.02 µM
same,GI50,[18],5.24 µM
same,IC50,[18],6.16 µM
same,GI50,[19],6.32 µM
same,IC50,[19],14.6 µM
same,GI50,[20],4.19 µM
same,IC50,[20],4.89 µM
same,GI50,[21],0.779 µM
same,IC50,[21],0.812 µM
same,GI50,[22],1.13 µM
same,IC50,[22],1.3 µM
same,GI50,[23],2.06 µM
same,IC50,[23],2.1 µM
same,GI50,[24],10.6 µM
same,IC50,[24],15.2 µM
same,GI50,[25],1.56 µM
same,IC50,[25],1.6 µM
same,GI50,[26],2.89 µM
same,IC50,[26],3.41 µM
same,GI50,[27],0.666 µM
same,IC50,[27],0.795 µM
same,GI50,[28],8.17 µM
same,IC50,[28],9.13 µM
same,GI50,[29],7.3 µM
same,IC50,[29],8.97 µM
same,GI50,"Homo sapiens, Hs-578T, HS578T, breast",25.1 µM
same,GI50,[30],6.99 µM
same,IC50,[30],10.1 µM
same,GI50,"Homo sapiens, IMR-90, IMR90, lung",11.8 µM
same,GI50,[31],5.79 µM
same,IC50,[31],6.64 µM
same,GI50,[32],11.2 µM
same,IC50,[32],26.8 µM
same,GI50,[33],1.06 µM
same,IC50,[33],1.17 µM
same,GI50,[34],5.17 µM
same,IC50,[34],12.7 µM
same,GI50,[35],0.343 µM
same,IC50,[35],0.522 µM
same,GI50,"Homo sapiens, LoVo, colon",4.36 µM
same,IC50,"Homo sapiens, LoVo, colon",4.66 µM
same,GI50,[36],2.09 µM
same,IC50,[36],6.07 µM
same,GI50,[37],8.37 µM
same,IC50,[37],13.8 µM
same,GI50,[38],2.48 µM
same,IC50,[38],2.66 µM
same,GI50,"Homo sapiens, MDA-MB-436, MDAMB436, breast",13.3 µM
